{"source": "patent US9000022B2", "about": "(Exelixis Patent Company LLC, priority 2005, dated 2015)"}
{"system": "LXRα and/or LXRβ", "experiment": "Co-transfection assay (LXRE luciferase reporter, CV-1 cells)", "type": "cell-based, human", "settings": "tested as described in Example 33; IC50 or EC50 for LXRα and/or LXRβ, isoform not specified; read-out: activity (IC50 or EC50 for LXR)", "method_in_brief": "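Luciferase signal measures LXR-RXR transcriptional activation in transiently transfected CV-1 cells carrying human LXRα or LXRβ, RXRα and a single-copy LXRE reporter. Cells were exposed to compound for 20 h at 37 °C with at most 1% DMSO, using 10 μM final for screening. Potency was derived from 4-parameter fits of 8-point, half-log dose curves averaged over ≥3 runs, and efficacy was expressed as % of a reference agonist.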", "units": {"IC50 or EC50 (potency, activation or inhibition)": "nM"}}
{"smiles": "CC(C)(O)c1cn(-c2ccc(-c3cc(C(F)(F)F)ccc3F)cc2)c(-c2ccccc2C(F)(F)F)n1", "note": "[Example 220, 2-{1-[2′-fluoro-5′-(trifluoro-methyl)biphenyl-4-yl]-2-[2-(trifluoro-methyl)phenyl]-1H-imidazol-4-yl}propan-2-ol]", "IC50 or EC50 (potency, activation or inhibition)": "< 1000"}
{"smiles": "COc1ncccc1-c1ccc(-n2cc(C(C)(C)O)nc2-c2ccccc2C(F)(F)F)cc1", "note": "[Example 274, 2-(1-{4-[2-(methyloxy)pyridin-3-yl]phenyl}-2-[2-(trifluoro-methyl)phenyl]-1H-imidazol-4-yl)propan-2-ol]", "IC50 or EC50 (potency, activation or inhibition)": "1000 to 10000"}
{"smiles": "CNS(=O)(=O)c1cccc(-c2ccc(-n3cc(C(C)(C)O)nc3-c3ccccc3C(F)(F)F)cc2)c1", "note": "[Example 344, 4′-{4-(1-hydroxy-1-methylethyl)-2-[2-(trifluoromethyl)phenyl]-1H-imidazol-1-yl}-N-methylbiphenyl-3-sulfonamide]", "IC50 or EC50 (potency, activation or inhibition)": "< 1000"}
{"smiles": "CS(=O)(=O)c1cccc(-c2ccc(-c3[nH]c(C(F)(F)F)nc3-c3ccccc3Cl)s2)c1", "note": "[Example 357, 4-(2-chlorophenyl)-5-{5-[3-(methylsulfonyl)phenyl]-2-thienyl}-2-(trifluoromethyl)-1H-imidazole]", "IC50 or EC50 (potency, activation or inhibition)": "< 1000"}
{"smiles": "CS(=O)(=O)c1cccc(-c2ccc(-n3cc(C(F)(F)F)nc3-c3ccccc3Cl)cc2)c1", "note": "[Example 358, 2-(2-chlorophenyl)-1-[3′-(methyl-sulfonyl)biphenyl-4-yl]-4-(trifluoro-methyl)-1H-imidazole]", "IC50 or EC50 (potency, activation or inhibition)": "< 1000"}
{"smiles": "CS(=O)(=O)c1cccc(-c2ccc(-c3[nH]c(C(F)(F)F)nc3-c3ccccc3Cl)cc2)c1", "note": "[Example 359, 4-(2-chlorophenyl)-5-[3′-(methyl-sulfonyl)biphenyl-4-yl]-2-(trifluoro-methyl)-1H-imidazole]", "IC50 or EC50 (potency, activation or inhibition)": "< 1000"}
{"smiles": "NS(=O)(=O)c1cccc(-c2ccc(-n3cc(C(F)(F)F)nc3-c3ccccc3Cl)cc2)c1", "note": "[Example 360, 4′-[2-(2-chlorophenyl)-4-(trifluoro-methyl)-1H-imidazol-1-yl]biphenyl-3-sulfonamide]", "IC50 or EC50 (potency, activation or inhibition)": "< 1000"}
{"smiles": "NS(=O)(=O)c1cccc(-c2ccc(-c3[nH]c(C(F)(F)F)nc3-c3ccccc3Cl)cc2)c1", "note": "[Example 361, 4′-[4-(2-chlorophenyl)-2-(trifluoro-methyl)-1H-imidazol-5-yl]biphenyl-3-sulfonamide]", "IC50 or EC50 (potency, activation or inhibition)": "1000 to 10000"}
{"smiles": "NS(=O)(=O)c1cccc(-c2ccc(-c3[nH]c(C(F)(F)F)nc3-c3ccccc3Cl)s2)c1", "note": "[Example 362, 3-{5-[4-(2-chlorophenyl)-2-(trifluoro-methyl)-1H-imidazol-5-yl]-2-thienyl}benzenesulfonamide]", "IC50 or EC50 (potency, activation or inhibition)": "< 1000"}
{"smiles": "FC(F)(F)c1cn(-c2ccc(Br)cc2)c(-c2ccccc2C(F)(F)F)n1", "note": "[Example 363, 1-(4-bromophenyl)-4-(trifluoromethyl)-2-[2-(trifluoromethyl)phenyl]-1H-imidazole]", "IC50 or EC50 (potency, activation or inhibition)": "1000 to 10000"}
{"smiles": "CS(=O)(=O)c1cccc(-c2ccc(-n3cc(C(F)(F)F)nc3-c3ccccc3C(F)(F)F)cc2)c1", "note": "[Example 364, 1-[3′-(methylsulfonyl)biphenyl-4-yl]-4-(trifluoromethyl)-2-[2-(trifluoro-methyl)phenyl]-1H-imidazole]", "IC50 or EC50 (potency, activation or inhibition)": "< 1000"}
{"smiles": "NS(=O)(=O)c1cccc(-c2ccc(-n3cc(C(F)(F)F)nc3-c3ccccc3C(F)(F)F)cc2)c1", "note": "[Example 365, 4′-{4-(trifluoromethyl)-2-[2-(trifluoromethyl)phenyl]-1H-imidazol-1-yl}biphenyl-3-sulfonamide]", "IC50 or EC50 (potency, activation or inhibition)": "< 1000"}
{"smiles": "CCOC(=O)c1cn(-c2ccc(Br)cc2)c(-c2ccccc2C(F)(F)F)n1", "note": "[Example 366, ethyl 1-(4-bromophenyl)-2-[2-(trifluoromethyl)phenyl]-1H-imidazole-4-carboxylate]", "IC50 or EC50 (potency, activation or inhibition)": "1000 to 10000"}
{"smiles": "CCOC(=O)c1cn(-c2ccc(-c3cccc(S(C)(=O)=O)c3)cc2)c(-c2ccccc2C(F)(F)F)n1", "note": "[Example 367]", "IC50 or EC50 (potency, activation or inhibition)": "< 1000"}
{"smiles": "FC(F)(F)c1cn(-c2ccc(Br)cn2)c(-c2ccccc2C(F)(F)F)n1", "note": "[Example 368, 5-bromo-2-{4-(trifluoromethyl)-2-[2-(trifluoro-methyl)phenyl]-1H-imidazol-1-yl}pyridine]", "IC50 or EC50 (potency, activation or inhibition)": "1000 to 10000"}
{"smiles": "CS(=O)(=O)c1cccc(-c2ccc(-n3cc(C(F)(F)F)nc3-c3ccccc3C(F)(F)F)nc2)c1", "note": "[Example 369, 5-[3-(methylsulfonyl)phenyl]-2-{4-(trifluoromethyl)-2-[2-(trifluoro-methyl)phenyl]-1H-imidazol-1-yl}pyridine]", "IC50 or EC50 (potency, activation or inhibition)": "< 1000"}
{"smiles": "CS(=O)(=O)c1cccc(-c2ccc(-n3cc(C(F)(F)F)nc3-c3ccccc3Cl)nc2)c1", "note": "[Example 370, 2-[2-(2-chlorophenyl)-4-(trifluoro-methyl)-1H-imidazol-1-yl]-5-[3-(methylsulfonyl)phenyl]pyridine]", "IC50 or EC50 (potency, activation or inhibition)": "< 1000"}
{"smiles": "CC(C)S(=O)(=O)c1cccc(-c2ccc(-n3cc(C(F)(F)F)nc3-c3ccccc3C(F)(F)F)nc2)c1", "note": "[Example 372, 5-{3-[(1-methylethyl)sulfonyl]phenyl}-2-{4-(trifluoromethyl)-2-[2-(trifluoro-methyl)phenyl]-1H-imidazol-1-yl}pyridine]", "IC50 or EC50 (potency, activation or inhibition)": "< 1000"}
{"smiles": "CC(C)S(=O)(=O)c1cccc(-c2ccc(-n3cc(C(F)(F)F)nc3-c3ccccc3C(F)(F)F)cc2)c1", "note": "[Example 373, 1-{3′-[(1-methylethyl)sulfonyl]biphenyl-4-yl}-4-(trifluoromethyl)-2-[2-(trifluoromethyl)phenyl]-1H-imidazole]", "IC50 or EC50 (potency, activation or inhibition)": "< 1000"}
{"smiles": "CC(C)(O)c1cn(-c2ccc(Br)cc2)c(-c2ccccc2C(F)(F)F)n1", "note": "[Example 374, 2-{1-(4-bromophenyl)-2-[2-(trifluoromethyl)phenyl]-1H-imidazol-4-yl}propan-2-ol]", "IC50 or EC50 (potency, activation or inhibition)": "1000 to 10000"}
{"smiles": "CS(=O)(=O)Nc1cccc(-c2ccc(-n3cc(C(F)(F)F)nc3-c3ccccc3C(F)(F)F)cc2)c1", "note": "[Example 375, N-(4′-{4-(trifluoromethyl)-2-[2-(trifluoromethyl)phenyl]-1H-imidazol-1-yl}biphenyl-3-yl)methane-sulfonamide]", "IC50 or EC50 (potency, activation or inhibition)": "< 1000"}
{"smiles": "CCOC(=O)c1cn(-c2ccc(-c3cccc(S(C)(=O)=O)c3)cc2)c(-c2ccccc2)n1", "note": "[Example 376, ethyl 1-[3′-(methylsulfonyl)biphenyl-4-yl]-2-phenyl-1H-imidazole-4-carboxylate]", "IC50 or EC50 (potency, activation or inhibition)": "< 1000"}
{"smiles": "CCOC(=O)c1cn(-c2ccc(Br)cc2)c(-c2ccccc2Cl)n1", "note": "[Example 377, ethyl 1-(4-bromophenyl)-2-(2-chlorophenyl)-1H-imidazole-4-carboxylate]", "IC50 or EC50 (potency, activation or inhibition)": "1000 to 10000"}
{"smiles": "CC(C)(O)c1cn(-c2ccc(-c3cccc(S(C)(=O)=O)c3)cc2)c(-c2ccccc2)n1", "note": "[Example 378, 2-{1-[3′-(methylsulfonyl)biphenyl-4-yl]-2-phenyl-1H-imidazole-4-yl}propan-2-ol]", "IC50 or EC50 (potency, activation or inhibition)": "1000 to 10000"}
{"smiles": "CC(C)(O)c1cn(-c2ccc(-c3cccc(S(C)(=O)=O)c3)cc2)c(-c2ccccc2Cl)n1", "note": "[Example 379, 2-{2-(2-chlorophenyl)-1-[3′-(methylsulfonyl)biphenyl-4-yl]-1H-imidazol-4-yl}propan-2-ol]", "IC50 or EC50 (potency, activation or inhibition)": "< 1000"}
{"smiles": "CC(C)(O)c1cn(-c2ccc(-c3cccc(S(C)(=O)=O)c3)cc2)c(-c2ccccc2F)n1", "note": "[Example 380, 2-{2-(2-fluorophenyl)-1-[3′-(methylsulfonyl)biphenyl-4-yl]-1H-imidazol-4-yl}propan-2-ol]", "IC50 or EC50 (potency, activation or inhibition)": "1000 to 10000"}
{"smiles": "CC(=O)c1cn(-c2ccc(-c3cccc(S(C)(=O)=O)c3)cc2)c(-c2ccccc2F)n1", "note": "[Example 381, 1-{2-(2-fluorophenyl)-1-[3′-(methylsulfonyl)biphenyl-4-yl]-1H-imidazol-4-yl}ethanone]", "IC50 or EC50 (potency, activation or inhibition)": "1000 to 10000"}
{"smiles": "CC(C)(O)c1cn(-c2ccc(-c3cccc(S(C)(=O)=O)c3)cc2)c(-c2cccc(Cl)c2Cl)n1", "note": "[Example 382, 2-{2-(2,3-dichlorophenyl)-1-[3′-(methylsulfonyl)biphenyl-4-yl]-1H-imidazol-4-yl}propan-2-ol]", "IC50 or EC50 (potency, activation or inhibition)": "< 1000"}
{"smiles": "CC(C)(O)c1cn(-c2ccc(-c3cccc(S(C)(=O)=O)c3)cc2)c(-c2cccc(F)c2Cl)n1", "note": "[Example 383, 2-{2-(2-chloro-3-fluorophenyl)-1-[3′-(methylsulfonyl)biphenyl-4-yl]-1H-imidazol-4-yl}propan-2-ol]", "IC50 or EC50 (potency, activation or inhibition)": "< 1000"}
{"smiles": "CC(C)(O)c1cn(-c2ccc(-c3cccc(S(N)(=O)=O)c3)cc2)c(-c2ccccc2Cl)n1", "note": "[Example 384, 4′-[2-(2-chlorophenyl)-4-(1-hydroxy-1-methylethyl)-1H-imidazol-1-yl]biphenyl-3-sulfonamide]", "IC50 or EC50 (potency, activation or inhibition)": "1000 to 10000"}
{"smiles": "CC(C)(O)c1cn(-c2ccc(-c3cccc(S(C)(=O)=O)c3)cc2)c(-c2ccc(F)cc2)n1", "note": "[Example 385, 2-{2-(4-fluorophenyl)-1-[3′-(methylsulfonyl)biphenyl-4-yl]-1H-imidazol-4-yl}propan-2-ol]", "IC50 or EC50 (potency, activation or inhibition)": "1000 to 10000"}
{"smiles": "CC(C)(O)c1cn(-c2ccc(-c3cccc(S(C)(=O)=O)c3)cc2F)c(-c2ccccc2Cl)n1", "note": "[Example 386, 2-{2-(2-chlorophenyl)-1-[3-fluoro-3′-(methylsulfonyl)biphenyl-4-yl]-1H-imidazol-4-yl}propan-2-ol]", "IC50 or EC50 (potency, activation or inhibition)": "< 1000"}
{"smiles": "CC(C)(O)c1cn(-c2ccc(-c3cccc(S(C)(=O)=O)c3)c(F)c2)c(-c2ccccc2Cl)n1", "note": "[Example 387, 2-{2-(2-chlorophenyl)-1-[2-fluoro-3′-(methylsulfonyl)biphenyl-4-yl]-1H-imidazol-4-yl}propan-2-ol]", "IC50 or EC50 (potency, activation or inhibition)": "1000 to 10000"}
{"smiles": "CC(C)c1cccc(-c2ccc(-n3cc(C(C)(C)O)nc3-c3ccccc3Cl)cc2)c1", "note": "[Example 388]", "IC50 or EC50 (potency, activation or inhibition)": "1000 to 10000"}
